This note sets out measurements from paper PMC10895676, “Antiviral Activity of Lipophilic Nucleoside Tetraphosphate Compounds” (Journal of Medicinal Chemistry, 2024).

“Also recorded” adds a separate entry of the source.

This experiment has as its target T1, human DNA polymerase γ (Homo sapiens, UniProt P54098).
T1 construct: purchased Chimerx
T1 sequence (P54098 1-1239): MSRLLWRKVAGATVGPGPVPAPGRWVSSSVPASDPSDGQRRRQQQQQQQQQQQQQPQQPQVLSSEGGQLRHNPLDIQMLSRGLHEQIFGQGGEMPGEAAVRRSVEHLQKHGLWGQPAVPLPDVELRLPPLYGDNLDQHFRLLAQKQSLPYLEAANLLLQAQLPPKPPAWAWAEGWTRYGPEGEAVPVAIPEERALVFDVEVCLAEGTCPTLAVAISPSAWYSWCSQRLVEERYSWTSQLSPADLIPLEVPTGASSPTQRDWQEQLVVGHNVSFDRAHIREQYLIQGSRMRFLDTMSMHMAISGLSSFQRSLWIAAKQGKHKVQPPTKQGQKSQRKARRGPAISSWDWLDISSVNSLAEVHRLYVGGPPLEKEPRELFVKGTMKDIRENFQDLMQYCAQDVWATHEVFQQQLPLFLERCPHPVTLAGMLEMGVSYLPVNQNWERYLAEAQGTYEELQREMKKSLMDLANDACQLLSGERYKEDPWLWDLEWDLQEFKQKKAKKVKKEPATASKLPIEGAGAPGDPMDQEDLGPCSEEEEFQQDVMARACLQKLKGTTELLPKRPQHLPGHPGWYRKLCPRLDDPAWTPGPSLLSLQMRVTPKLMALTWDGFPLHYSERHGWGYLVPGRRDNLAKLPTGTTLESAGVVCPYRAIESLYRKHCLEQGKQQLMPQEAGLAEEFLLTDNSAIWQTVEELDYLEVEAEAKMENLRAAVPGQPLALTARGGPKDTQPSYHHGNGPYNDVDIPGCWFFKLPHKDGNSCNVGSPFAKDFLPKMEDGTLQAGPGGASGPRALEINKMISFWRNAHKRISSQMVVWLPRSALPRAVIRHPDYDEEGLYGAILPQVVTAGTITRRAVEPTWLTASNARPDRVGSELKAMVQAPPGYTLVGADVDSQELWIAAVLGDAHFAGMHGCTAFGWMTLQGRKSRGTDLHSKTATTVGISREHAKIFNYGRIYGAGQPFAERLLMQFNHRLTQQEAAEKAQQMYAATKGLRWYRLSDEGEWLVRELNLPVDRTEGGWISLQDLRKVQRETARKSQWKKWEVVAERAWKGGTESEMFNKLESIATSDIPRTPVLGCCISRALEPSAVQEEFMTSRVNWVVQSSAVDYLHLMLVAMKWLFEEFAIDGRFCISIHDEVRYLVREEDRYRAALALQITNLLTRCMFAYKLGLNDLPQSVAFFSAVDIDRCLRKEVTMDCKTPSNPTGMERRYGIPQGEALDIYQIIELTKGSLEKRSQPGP
The experiment can be described thus: Primer extension assay using human DNA polymerase γ. It is filed as biochemical. The note with it: 120 min, 2 U, 37 °C. From the text: Encouraged by the previously obtained results that γ-phosphate-modified-d4TDPs 3, γ-monoalkylated d4TTP derivatives as well as d4TDP were accepted as substrates by HIV-RT,[49],[50],[55],[59]−[61] δ-dialkylated d4T tetraphosphate analogues 4,5, δ-monoalkylated d4T tetraphosphate analogues 20 and 24 and d4T4P were investigated in primer extension assays in the presence of HIV-RT or the three different human DNA polymerases α, β and γ. D4TTP (for the compounds 4–9) and the natural thymidine triphosphate (TTP) were used as reference compounds.
Figure 6 Primer extension assay using HIV-RT (A), human polymerases α (B), β (C), and γ (D). (Figure 6A). Primer extension assay using HIV-RT (30 min, 6U). Lane 1: (+) dATP, dCTP, dGTP, and TTP with HIV-RT. Lane 2: (−) dATP, dCTP, dGTP, and TTP without HIV-RT. Lane 3: TTP. […] Lane 5: δ-(C4; C18)-d4T4P 4d. […] Lane 7: δ-(C18)-d4T4P 20. Lane 8: δ-C-(C18)-d4T4P 24. Lane 9: d4T4P. Lane 10: d4TTP. Lane 11: d4TDP. HIV-RT assay reaction conditions: 50 mM Tris–HCl (pH 8.6), 10 mM MgCl2, 40 mM KCl, 250 μM dNTPs, HIV-RT (6 U), 0.20 μM DNA hybrid, primer-template-hybrid 0.32 mM in a reaction volume of 10 μL, incubated at 37 °C for 0.5 h, 80 °C for 7 min. Primer extension assays: 50 mA, 45 w for 4 h. (Figure 6B). For human DNA polymerase α assay (60 min, 2 U): Lane 1: (+) dATP, dCTP, dGTP, and TTP with human polymerase α. Lane 2: (−) dATP, dCTP, dGTP, and TTP without human polymerase α. Lane 3: TTP. […] Lane 5: δ-(C4; C18)-d4T4P 4d. […] Lane 7: δ-(C18)-d4T4P 20. Lane 8: δ-C-(C18)-d4T4P 24. Lane 9: d4T4P. Lane 10: d4TTP. Human DNA polymerase α assay conditions: 60 mM Tris–HCl (pH 8), 5 mM Mg(OAc)2, 100 mM KCl, 1.0 mM dithiothreitol, 0.1 mM spermine, 0.01% (w/v) bovine serum albumin, 250 μM dNTPs, 2 U human polymerase α, 0.20 μM DNA hybrid, and primer-template-hybrid 0.32 mM in a reaction volume of 10 μL, incubated at 37 °C for 1 h, 80 °C for 7 min. Primer extension assays: 50 mA, 45 w for 3 h. (Figure 6C). For human DNA polymerase β assay (60 min, 2 U): Lane 1: (+) dATP, dCTP, dGTP, and TTP with human polymerase β. […]

In the case of `Cc1cn([C@H]2C=C[C@@H](COP(=O)(O)OP(=O)(O)OP(=O)(O)OP(=O)(O)O)O2)c(=O)[nH]c1=O` [d4T4P, 2′,3′-didehydro-2′,3′-dideoxythymidine-5′-tetraphosphate], the “substrate for human DNA polymerase γ (primer extension)” value is on record as “nonsubstrates; also recorded: not a substrate”.
Turning to `CCCCCCCCCCCCCCCCCCOP(=O)(O)OP(=O)(O)OP(=O)(O)OP(=O)(O)OC[C@@H]1C=C[C@H](n2cc(C)c(=O)[nH]c2=O)O1` [compound 20, δ-(Alkyl-C18)-d4T4P], the “substrate for human DNA polymerase γ (primer extension)” value was “nonsubstrates”.
Next, `CCCCCCCCCCCCCCCCCCP(=O)(O)OP(=O)(O)OP(=O)(O)OP(=O)(O)OC[C@@H]1C=C[C@H](n2cc(C)c(=O)[nH]c2=O)O1` [compound 24, δ-C-(Alkyl-C18)-d4T4P]: “nonsubstrates”.
